Assays:
Assay in all cases: KINOMEscan competition binding
Settings in all cases: compound 1.0 µM
[1] = test system: ABL1 (human), P00519 [H396P]
ACVR2A (human) = ACVR2A (human) (UniProt P27037)
AURKA (human) = AURKA (human) (UniProt O14965)
FGFR3 (human) = FGFR3 (human) (UniProt P22607)
FGFR4 (human) = FGFR4 (human) (UniProt P22455)
[2] = test system: FLT3 (human), P36888 [D835Y]
FYN (human) = FYN (human) (UniProt P06241)
GRK7 (human) = GRK7 (human) (UniProt Q8WTQ7)
HIPK3 (human) = HIPK3 (human) (UniProt Q9H422)
IGF1R (human) = IGF1R (human) (UniProt P08069)
Sequence of IGF1R (human) (P08069 whole entry, looked up): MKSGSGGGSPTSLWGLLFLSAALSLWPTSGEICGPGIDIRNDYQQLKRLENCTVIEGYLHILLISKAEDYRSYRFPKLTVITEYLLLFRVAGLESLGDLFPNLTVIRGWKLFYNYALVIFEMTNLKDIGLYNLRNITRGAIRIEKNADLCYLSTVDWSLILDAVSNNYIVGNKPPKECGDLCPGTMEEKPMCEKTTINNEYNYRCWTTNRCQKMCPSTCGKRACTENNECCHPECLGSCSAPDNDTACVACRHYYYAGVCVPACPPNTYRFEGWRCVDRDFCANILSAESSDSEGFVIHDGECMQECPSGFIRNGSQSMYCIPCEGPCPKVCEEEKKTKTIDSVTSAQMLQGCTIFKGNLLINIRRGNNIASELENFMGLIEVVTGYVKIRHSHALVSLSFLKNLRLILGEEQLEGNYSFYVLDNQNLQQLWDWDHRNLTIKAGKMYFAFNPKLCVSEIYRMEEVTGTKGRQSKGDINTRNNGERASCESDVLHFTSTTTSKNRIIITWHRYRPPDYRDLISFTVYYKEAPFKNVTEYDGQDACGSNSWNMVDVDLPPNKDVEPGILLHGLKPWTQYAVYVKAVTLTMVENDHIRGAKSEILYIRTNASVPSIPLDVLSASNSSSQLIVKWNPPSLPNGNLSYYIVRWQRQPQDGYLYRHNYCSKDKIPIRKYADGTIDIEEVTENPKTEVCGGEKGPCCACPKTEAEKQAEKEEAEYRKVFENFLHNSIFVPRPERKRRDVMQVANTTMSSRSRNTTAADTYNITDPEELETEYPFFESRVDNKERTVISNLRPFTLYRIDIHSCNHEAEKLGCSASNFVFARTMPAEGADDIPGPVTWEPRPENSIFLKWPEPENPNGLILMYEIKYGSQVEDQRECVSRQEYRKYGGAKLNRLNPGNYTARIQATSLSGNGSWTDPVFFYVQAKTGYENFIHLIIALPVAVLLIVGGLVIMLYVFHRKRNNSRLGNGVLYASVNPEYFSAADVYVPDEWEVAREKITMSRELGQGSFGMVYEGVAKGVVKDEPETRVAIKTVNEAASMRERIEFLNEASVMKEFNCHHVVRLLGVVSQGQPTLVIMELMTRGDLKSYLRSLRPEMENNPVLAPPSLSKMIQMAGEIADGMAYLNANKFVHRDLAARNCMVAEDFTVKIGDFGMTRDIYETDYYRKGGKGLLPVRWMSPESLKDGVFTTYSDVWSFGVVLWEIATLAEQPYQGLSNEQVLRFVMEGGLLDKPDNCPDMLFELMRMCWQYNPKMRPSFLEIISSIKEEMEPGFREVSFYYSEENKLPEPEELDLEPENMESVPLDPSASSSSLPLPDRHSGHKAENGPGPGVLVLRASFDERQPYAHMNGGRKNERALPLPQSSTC

IRAK3 (human) = IRAK3 (human) (UniProt Q9Y616)
[3] = molecular target: JAK1 JH2 pseudokinase (human) (UniProt P23458)
[4] = test system: KIT (human), P10721 [L576P]
[5] = test system: KIT (human), P10721 [V559D/V654A]
LATS2 (human) = LATS2 (human) (UniProt Q9NRM7)
MAP3K13 (human) = MAP3K13 (human) (UniProt O43283)
MAP3K7 (human) = MAP3K7 (human) (UniProt O43318)
MAPK10 (human) = MAPK10 (human) (UniProt P53779)
MARK1 (human) = MARK1 (human) (UniProt Q9P0L2)
MARK4 (human) = MARK4 (human) (UniProt Q96L34)
Sequence of MARK4 (human) (Q96L34 whole entry, looked up): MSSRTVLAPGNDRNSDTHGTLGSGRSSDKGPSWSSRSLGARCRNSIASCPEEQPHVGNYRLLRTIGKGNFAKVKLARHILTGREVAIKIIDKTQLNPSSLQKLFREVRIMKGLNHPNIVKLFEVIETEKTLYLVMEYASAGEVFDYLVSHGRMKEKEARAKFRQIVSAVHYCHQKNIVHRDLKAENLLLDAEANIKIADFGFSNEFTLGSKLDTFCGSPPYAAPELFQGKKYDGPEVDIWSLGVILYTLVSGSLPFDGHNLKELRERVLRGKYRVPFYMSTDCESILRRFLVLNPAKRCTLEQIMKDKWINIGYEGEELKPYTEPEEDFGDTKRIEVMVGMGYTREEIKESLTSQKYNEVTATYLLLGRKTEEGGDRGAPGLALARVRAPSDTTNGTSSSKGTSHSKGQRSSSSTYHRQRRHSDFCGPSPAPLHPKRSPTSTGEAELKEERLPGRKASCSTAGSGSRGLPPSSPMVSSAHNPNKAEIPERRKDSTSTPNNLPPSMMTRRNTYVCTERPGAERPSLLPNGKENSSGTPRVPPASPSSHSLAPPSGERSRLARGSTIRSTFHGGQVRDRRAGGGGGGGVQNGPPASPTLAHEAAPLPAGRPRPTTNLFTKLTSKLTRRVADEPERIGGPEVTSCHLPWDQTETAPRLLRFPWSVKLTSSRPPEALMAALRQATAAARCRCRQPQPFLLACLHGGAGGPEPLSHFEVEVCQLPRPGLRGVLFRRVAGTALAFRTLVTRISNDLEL

MAST1 (human) = MAST1 (human) (UniProt Q9Y2H9)
MET (human) = MET (human) (UniProt P08581)
[6] = test system: MET (human), P08581 [M1250T]
MST4 (human) = MST4 (human) (UniProt Q9P289)
Sequence of MST4 (human) (Q9P289 whole entry, looked up): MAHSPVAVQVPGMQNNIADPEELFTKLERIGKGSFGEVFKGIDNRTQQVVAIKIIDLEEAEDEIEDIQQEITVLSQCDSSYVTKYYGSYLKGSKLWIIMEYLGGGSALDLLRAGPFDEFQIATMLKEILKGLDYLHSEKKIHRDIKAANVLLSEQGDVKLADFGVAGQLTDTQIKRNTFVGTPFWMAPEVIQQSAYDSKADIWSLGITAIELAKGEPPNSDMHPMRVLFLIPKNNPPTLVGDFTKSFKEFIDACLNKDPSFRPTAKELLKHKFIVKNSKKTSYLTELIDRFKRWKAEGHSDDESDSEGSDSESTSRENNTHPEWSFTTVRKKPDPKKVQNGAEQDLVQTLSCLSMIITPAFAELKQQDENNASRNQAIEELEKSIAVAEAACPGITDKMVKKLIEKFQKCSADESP

MYO3A (human) = MYO3A (human) (UniProt Q8NEV4)
NEK7 (human) = NEK7 (human) (UniProt Q8TDX7)
NTRK3 (human) = NTRK3 (human) (UniProt Q16288)
Sequence of NTRK3 (human) (Q16288 whole entry, looked up): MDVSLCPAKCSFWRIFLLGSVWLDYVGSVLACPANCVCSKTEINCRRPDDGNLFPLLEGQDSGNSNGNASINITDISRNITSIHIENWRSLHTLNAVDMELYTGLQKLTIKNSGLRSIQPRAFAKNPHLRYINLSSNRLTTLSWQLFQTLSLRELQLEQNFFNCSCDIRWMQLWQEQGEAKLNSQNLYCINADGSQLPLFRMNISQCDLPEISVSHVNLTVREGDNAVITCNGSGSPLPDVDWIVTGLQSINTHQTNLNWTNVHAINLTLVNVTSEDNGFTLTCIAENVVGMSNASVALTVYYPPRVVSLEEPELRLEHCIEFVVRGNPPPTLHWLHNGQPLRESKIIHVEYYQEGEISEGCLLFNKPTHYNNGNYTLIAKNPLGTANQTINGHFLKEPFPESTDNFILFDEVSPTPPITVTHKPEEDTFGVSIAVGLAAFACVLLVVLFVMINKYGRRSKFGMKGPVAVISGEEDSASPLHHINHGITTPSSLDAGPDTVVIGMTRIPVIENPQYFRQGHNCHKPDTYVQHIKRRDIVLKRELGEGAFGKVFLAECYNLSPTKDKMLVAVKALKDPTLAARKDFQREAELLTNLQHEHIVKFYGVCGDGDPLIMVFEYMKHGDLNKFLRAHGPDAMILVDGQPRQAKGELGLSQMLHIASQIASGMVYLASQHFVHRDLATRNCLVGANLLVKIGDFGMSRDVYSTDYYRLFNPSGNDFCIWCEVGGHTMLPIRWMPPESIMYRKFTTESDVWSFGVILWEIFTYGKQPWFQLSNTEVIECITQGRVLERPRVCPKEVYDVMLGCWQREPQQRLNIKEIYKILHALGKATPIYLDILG

PAK7 (human) = PAK7 (human) (UniProt Q9P286)
PKMYT1 (human) = PKMYT1 (human) (UniProt Q99640)
PKN2 (human) = PKN2 (human) (UniProt Q16513)
PRKCD (human) = PRKCD (human) (UniProt Q05655)
PRKG2 (human) = PRKG2 (human) (UniProt Q13237)
RAF1 (human) = RAF1 (human) (UniProt P04049)
SGK110 (human) = SGK110 (human) (UniProt P0C264)
Sequence of SGK110 (human) (P0C264 whole entry, looked up): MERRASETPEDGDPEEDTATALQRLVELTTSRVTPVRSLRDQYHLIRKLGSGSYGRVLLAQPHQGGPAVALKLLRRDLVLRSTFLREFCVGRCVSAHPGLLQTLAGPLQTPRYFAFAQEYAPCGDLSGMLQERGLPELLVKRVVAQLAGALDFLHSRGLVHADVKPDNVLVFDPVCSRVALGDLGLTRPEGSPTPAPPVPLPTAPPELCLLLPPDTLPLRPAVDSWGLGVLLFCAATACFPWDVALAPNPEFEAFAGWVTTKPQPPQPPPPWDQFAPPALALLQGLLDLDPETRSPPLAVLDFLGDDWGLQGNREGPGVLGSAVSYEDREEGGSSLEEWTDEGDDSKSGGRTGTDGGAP

SIK3 (human) = SIK3 (human) (UniProt Q9Y2K2)
TAOK3 (human) = TAOK3 (human) (UniProt Q9H2K8)
TESK1 (human) = TESK1 (human) (UniProt Q15569)
TLK1 (human) = TLK1 (human) (UniProt Q9UKI8)
Sequence of TLK1 (human) (Q9UKI8 whole entry, looked up): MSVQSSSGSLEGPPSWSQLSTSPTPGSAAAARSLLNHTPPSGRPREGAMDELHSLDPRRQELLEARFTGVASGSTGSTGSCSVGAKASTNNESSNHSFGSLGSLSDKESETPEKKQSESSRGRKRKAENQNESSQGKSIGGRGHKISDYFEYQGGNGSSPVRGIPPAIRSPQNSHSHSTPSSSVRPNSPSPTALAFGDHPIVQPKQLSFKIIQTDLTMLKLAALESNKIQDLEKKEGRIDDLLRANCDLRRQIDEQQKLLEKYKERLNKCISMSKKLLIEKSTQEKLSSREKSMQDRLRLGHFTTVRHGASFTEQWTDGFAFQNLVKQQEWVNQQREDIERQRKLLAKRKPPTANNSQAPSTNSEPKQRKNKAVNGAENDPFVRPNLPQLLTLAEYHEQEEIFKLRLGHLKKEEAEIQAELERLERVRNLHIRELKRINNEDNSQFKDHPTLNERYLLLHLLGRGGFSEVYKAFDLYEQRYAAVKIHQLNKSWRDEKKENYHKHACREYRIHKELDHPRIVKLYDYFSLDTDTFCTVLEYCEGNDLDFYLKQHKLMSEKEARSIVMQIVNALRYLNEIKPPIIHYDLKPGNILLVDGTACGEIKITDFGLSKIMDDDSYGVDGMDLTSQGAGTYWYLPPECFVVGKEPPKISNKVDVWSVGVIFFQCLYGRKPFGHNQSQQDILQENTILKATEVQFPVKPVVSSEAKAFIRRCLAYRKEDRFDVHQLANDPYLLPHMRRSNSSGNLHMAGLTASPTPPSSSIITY

TNIK (human) = TNIK (human) (UniProt Q9UKE5)
TYRO3 (human) = TYRO3 (human) (UniProt Q06418)

Sequence of ACVR2A (human) (P27037 whole entry, looked up): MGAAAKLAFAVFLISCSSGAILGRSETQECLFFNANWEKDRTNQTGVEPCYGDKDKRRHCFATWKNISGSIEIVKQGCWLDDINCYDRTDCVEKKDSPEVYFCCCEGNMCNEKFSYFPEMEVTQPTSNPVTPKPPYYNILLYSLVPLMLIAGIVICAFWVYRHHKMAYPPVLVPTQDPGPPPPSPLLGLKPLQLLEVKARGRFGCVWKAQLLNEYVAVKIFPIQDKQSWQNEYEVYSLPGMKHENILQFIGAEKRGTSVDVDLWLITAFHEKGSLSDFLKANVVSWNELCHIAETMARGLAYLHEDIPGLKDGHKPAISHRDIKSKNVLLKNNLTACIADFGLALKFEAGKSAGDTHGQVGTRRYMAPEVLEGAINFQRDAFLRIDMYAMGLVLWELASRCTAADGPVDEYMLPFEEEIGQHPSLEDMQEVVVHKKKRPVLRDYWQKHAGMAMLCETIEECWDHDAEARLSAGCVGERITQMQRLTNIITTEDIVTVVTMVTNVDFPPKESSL

SMILES: Nc1cc(C(F)(F)F)c(-c2cc(N3CCOCC3)nc(N3CCOCC3)n2)cn1
- inhibition of binding [1]: 0%
- inhibition of binding (ACVR2A (human)): 5%
- inhibition of binding (AURKA (human)): 0%
- inhibition of binding (FGFR3 (human)): 7%
- inhibition of binding (FGFR4 (human)): 0%
- inhibition of binding [2]: 12%
- inhibition of binding (FYN (human)): 0%
- inhibition of binding (GRK7 (human)): 3%
- inhibition of binding (HIPK3 (human)): 0%
- inhibition of binding (IGF1R (human)): 0%
- inhibition of binding (IRAK3 (human)): 0%
- inhibition of binding [3]: 0%
- inhibition of binding [4]: 0%
- inhibition of binding [5]: 0%
- inhibition of binding (LATS2 (human)): 19%
- inhibition of binding (MAP3K13 (human)): 0%
- inhibition of binding (MAP3K7 (human)): 5%
- inhibition of binding (MAPK10 (human)): 17%
- inhibition of binding (MARK1 (human)): 0%
- inhibition of binding (MARK4 (human)): 0%
- inhibition of binding (MAST1 (human)): 0%
- inhibition of binding (MET (human)): 12%
- inhibition of binding [6]: 20%
- inhibition of binding (MST4 (human)): 0%
- inhibition of binding (MYO3A (human)): 7%
- inhibition of binding (NEK7 (human)): 0%
- inhibition of binding (NTRK3 (human)): 0%
- inhibition of binding (PAK7 (human)): 0%
- inhibition of binding (PKMYT1 (human)): 0%
- inhibition of binding (PKN2 (human)): 0%
- inhibition of binding (PRKCD (human)): 4%
- inhibition of binding (PRKG2 (human)): 0%
- inhibition of binding (RAF1 (human)): 7%
- inhibition of binding (SGK110 (human)): 3%
- inhibition of binding (SIK3 (human)): 0%
- inhibition of binding (TAOK3 (human)): 10%
- inhibition of binding (TESK1 (human)): 0%
- inhibition of binding (TLK1 (human)): 12%
- inhibition of binding (TNIK (human)): 1%
- inhibition of binding (TYRO3 (human)): 0%
